Measured values taken from ChEMBL document CHEMBL5212743, “Selectivity Literature for EUbOPEN Chemogenomics Library wave 3” (2023).
pIC50, pKi: −log10 of the molar value.

Assays:
[1] = biological target: D(1A) dopamine receptor (Homo sapiens, UniProt P21728); assay: Selectivity interaction (GPCR panel (PDSP screen)) EUB0000138c DRD1
[2] = biological target: Serine/threonine-protein kinase 17A (Homo sapiens, UniProt Q9UEE5); assay: Selectivity interaction (NanoBRET assay (HEK293T cells)) EUB0000305b STK17A
[3] = biological target: T1, Dual specificity mitogen-activated protein kinase kinase 5 (Homo sapiens, UniProt Q13163); assay: Selectivity interaction (Enzymatic assay) EUB0000305b MAP2K5
T1 sequence (Q13163 whole entry): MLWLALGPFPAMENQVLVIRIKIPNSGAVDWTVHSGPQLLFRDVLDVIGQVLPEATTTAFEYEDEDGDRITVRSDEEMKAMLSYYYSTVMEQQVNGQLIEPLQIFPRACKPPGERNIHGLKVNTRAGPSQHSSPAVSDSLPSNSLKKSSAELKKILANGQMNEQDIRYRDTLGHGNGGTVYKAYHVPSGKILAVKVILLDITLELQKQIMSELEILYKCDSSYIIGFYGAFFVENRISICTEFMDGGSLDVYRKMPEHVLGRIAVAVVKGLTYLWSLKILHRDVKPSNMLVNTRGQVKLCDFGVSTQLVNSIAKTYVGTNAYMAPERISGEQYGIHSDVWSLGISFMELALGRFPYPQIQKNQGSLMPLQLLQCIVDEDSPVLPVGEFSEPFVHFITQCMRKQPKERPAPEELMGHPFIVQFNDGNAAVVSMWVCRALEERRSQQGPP

[4] = biological target: Receptor-type tyrosine-protein kinase FLT3 (Homo sapiens, UniProt P36888); assay: Selectivity interaction (NanoBRET assay (HEK293T cells)) EUB0000305b FLT3
[5] = biological target: Serine/threonine-protein kinase 10 (Homo sapiens) (UniProt O94804); conditions: at 1 µM
[6] = biological target: Serine/threonine-protein kinase PLK3 (Homo sapiens, UniProt Q9H4B4); assay: Selectivity interaction (KinomeScan (DiscoverX)) EUB0000169b PLK3; conditions: at 1 µM
[7] = system: ALK tyrosine kinase receptor (Homo sapiens), Q9UM73 [C1156Y]; assay: Selectivity interaction (KinomeScan (DiscoverX)) EUB0000169b ALK; conditions: at 1 µM
[8] = biological target: T2, Mitogen-activated protein kinase 12 (Homo sapiens) (UniProt P53778); conditions: at 10 µM
T2 sequence (whole entry): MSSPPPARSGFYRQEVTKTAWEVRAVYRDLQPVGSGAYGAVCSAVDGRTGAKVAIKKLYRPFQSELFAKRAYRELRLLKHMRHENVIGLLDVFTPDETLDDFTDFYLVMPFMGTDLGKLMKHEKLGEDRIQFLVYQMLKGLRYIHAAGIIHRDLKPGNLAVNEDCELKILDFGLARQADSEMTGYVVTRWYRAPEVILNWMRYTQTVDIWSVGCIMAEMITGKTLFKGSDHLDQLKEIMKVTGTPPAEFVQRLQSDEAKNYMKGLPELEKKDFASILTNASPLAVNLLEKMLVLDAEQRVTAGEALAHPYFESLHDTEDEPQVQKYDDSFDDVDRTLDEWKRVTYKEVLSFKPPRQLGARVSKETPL

[9] = biological target: Aurora kinase B (Homo sapiens, UniProt Q96GD4); assay: Selectivity interaction (KinomeScan (DiscoverX)) EUB0000702a AURKB; conditions: at 1 µM
[10] = biological target: T3, Mitogen-activated protein kinase kinase kinase 19 (Homo sapiens) (UniProt Q56UN5); assay: Selectivity interaction (KinomeScan (DiscoverX)) EUB0000702a MAP3K19; conditions: at 1 µM
T3 sequence (whole entry): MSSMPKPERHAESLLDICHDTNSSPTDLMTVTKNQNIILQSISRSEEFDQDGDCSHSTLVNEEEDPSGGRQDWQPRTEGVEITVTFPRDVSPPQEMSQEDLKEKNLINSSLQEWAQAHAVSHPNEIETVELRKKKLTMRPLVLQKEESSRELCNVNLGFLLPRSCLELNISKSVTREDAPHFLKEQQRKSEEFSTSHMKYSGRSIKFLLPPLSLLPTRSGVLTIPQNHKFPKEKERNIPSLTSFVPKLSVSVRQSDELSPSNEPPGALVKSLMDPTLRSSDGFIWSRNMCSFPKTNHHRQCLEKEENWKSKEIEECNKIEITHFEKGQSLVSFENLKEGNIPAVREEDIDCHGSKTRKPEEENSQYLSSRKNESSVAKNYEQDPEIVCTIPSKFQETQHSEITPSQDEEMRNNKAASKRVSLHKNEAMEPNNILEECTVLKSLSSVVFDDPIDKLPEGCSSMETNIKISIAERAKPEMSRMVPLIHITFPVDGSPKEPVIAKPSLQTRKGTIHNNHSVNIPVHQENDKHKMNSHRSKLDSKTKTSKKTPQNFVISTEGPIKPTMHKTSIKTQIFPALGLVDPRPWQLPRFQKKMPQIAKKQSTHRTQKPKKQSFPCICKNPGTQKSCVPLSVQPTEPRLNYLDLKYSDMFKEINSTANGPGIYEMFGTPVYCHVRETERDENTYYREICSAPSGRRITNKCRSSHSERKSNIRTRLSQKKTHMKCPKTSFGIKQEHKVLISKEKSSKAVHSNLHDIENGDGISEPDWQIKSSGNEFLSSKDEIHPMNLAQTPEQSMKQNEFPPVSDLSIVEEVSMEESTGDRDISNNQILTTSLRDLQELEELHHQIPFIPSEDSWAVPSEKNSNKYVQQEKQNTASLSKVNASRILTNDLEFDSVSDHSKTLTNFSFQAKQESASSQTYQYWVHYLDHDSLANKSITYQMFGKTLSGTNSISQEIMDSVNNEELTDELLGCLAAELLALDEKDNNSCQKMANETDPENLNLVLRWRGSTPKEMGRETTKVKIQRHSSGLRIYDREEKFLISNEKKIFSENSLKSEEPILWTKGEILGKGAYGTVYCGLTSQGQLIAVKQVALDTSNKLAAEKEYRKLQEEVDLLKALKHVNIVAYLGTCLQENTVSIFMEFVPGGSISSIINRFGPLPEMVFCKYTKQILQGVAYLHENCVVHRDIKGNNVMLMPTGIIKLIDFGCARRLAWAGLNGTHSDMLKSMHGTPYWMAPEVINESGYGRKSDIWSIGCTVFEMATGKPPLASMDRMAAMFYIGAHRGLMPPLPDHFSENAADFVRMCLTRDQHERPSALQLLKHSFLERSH

[11] = biological target: Mitogen-activated protein kinase kinase kinase 3 (Homo sapiens, UniProt Q99759); assay: Selectivity interaction (Enzymatic assay) EUB0000178b MAP3K3
[12] = biological target: Serine/threonine-protein kinase PLK2 (Homo sapiens) (UniProt Q9NYY3); assay: Selectivity interaction (KinomeScan (DiscoverX)) EUB0000698a PLK2; conditions: at 10 µM
[13] = biological target: Vascular endothelial growth factor receptor 3 (Homo sapiens) (UniProt P35916); assay: Selectivity interaction (KinomeScan (DiscoverX)) EUB0000698a FLT4; conditions: at 10 µM
[14] = biological target: Phosphatidylinositol 4-phosphate 5-kinase type-1 gamma (Homo sapiens) (UniProt O60331); assay: Selectivity interaction (KinomeScan (DiscoverX)) EUB0000698a PIP5K1C; conditions: at 10 µM

Chain of Serine/threonine-protein kinase 10 (Homo sapiens) (O94804 whole entry, looked up): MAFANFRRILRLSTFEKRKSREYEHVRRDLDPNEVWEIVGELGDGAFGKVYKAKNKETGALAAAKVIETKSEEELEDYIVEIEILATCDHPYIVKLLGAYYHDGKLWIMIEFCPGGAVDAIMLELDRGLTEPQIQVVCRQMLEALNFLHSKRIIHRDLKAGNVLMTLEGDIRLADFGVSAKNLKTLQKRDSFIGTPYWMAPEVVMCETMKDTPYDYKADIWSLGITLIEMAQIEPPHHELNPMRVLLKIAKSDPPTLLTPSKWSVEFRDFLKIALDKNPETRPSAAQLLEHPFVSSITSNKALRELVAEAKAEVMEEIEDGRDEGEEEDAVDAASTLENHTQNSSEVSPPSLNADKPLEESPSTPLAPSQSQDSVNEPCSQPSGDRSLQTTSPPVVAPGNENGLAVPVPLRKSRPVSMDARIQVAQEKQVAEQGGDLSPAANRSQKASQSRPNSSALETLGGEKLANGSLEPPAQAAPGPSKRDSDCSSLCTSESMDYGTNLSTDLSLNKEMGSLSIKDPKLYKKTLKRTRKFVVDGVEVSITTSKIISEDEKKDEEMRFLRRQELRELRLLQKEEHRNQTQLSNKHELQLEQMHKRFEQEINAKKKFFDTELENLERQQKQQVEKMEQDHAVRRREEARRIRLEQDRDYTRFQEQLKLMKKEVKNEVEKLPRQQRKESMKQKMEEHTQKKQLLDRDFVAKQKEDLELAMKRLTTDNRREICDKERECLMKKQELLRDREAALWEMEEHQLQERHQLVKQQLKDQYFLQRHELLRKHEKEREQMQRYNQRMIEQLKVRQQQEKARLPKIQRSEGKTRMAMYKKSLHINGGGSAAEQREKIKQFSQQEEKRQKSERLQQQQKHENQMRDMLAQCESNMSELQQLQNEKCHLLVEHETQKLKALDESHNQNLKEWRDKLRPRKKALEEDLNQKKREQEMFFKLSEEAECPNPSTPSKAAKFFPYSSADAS
Chain of D(1A) dopamine receptor (P21728 whole entry): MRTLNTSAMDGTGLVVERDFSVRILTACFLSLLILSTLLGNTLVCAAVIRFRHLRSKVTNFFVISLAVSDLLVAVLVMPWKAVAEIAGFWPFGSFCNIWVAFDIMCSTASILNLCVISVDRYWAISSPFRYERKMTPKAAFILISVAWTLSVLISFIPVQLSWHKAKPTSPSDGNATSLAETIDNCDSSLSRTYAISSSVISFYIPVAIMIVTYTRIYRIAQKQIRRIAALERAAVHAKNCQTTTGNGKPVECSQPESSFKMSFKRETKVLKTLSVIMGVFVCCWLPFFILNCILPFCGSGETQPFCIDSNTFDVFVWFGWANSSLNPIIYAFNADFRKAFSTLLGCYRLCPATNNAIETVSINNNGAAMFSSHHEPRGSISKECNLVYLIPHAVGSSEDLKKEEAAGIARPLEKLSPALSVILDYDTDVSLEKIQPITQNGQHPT
Chain of Aurora kinase B (Q96GD4 whole entry): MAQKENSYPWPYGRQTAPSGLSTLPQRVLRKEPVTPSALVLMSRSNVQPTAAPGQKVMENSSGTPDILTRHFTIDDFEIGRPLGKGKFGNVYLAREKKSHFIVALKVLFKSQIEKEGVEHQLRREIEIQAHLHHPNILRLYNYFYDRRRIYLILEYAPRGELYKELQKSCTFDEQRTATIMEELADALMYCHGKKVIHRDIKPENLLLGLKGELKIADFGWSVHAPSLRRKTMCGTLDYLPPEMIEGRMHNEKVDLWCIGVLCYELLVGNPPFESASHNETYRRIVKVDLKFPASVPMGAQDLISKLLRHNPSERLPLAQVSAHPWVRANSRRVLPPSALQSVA
Chain of Serine/threonine-protein kinase PLK3 (Q9H4B4 whole entry, looked up): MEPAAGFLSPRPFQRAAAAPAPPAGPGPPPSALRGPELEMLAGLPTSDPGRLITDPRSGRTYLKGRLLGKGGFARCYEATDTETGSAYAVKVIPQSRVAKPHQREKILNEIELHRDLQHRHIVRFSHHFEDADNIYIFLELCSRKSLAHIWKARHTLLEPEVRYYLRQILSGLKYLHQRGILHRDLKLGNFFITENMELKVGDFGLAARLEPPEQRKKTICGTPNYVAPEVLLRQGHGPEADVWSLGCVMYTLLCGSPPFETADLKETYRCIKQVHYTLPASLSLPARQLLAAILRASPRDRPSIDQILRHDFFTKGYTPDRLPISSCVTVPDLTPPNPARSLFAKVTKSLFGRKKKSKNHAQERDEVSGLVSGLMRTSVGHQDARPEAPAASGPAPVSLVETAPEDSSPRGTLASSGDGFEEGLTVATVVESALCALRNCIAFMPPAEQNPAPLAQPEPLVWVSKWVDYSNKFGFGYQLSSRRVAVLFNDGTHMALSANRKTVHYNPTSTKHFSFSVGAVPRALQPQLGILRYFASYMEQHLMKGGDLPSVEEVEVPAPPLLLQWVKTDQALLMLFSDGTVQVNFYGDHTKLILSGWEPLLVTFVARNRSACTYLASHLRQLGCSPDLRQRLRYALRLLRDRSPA
Chain of Mitogen-activated protein kinase kinase kinase 3 (Q99759 whole entry): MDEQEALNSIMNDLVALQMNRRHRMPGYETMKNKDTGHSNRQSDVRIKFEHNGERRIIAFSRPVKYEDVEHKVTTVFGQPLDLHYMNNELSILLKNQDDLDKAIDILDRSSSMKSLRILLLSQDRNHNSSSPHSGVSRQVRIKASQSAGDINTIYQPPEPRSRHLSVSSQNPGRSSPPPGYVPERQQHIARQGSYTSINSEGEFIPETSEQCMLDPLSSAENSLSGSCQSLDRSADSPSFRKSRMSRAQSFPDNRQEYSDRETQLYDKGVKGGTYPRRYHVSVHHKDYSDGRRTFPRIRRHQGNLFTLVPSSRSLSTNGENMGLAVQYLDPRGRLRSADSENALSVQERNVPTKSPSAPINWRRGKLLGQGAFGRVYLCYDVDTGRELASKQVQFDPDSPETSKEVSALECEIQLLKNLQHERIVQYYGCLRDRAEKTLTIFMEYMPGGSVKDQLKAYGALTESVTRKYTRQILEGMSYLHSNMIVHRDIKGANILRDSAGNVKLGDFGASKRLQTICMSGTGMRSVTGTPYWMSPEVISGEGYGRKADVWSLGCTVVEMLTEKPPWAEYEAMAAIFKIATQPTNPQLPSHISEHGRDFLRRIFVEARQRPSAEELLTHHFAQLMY
Chain of Serine/threonine-protein kinase PLK2 (Homo sapiens) (Q9NYY3 whole entry, looked up): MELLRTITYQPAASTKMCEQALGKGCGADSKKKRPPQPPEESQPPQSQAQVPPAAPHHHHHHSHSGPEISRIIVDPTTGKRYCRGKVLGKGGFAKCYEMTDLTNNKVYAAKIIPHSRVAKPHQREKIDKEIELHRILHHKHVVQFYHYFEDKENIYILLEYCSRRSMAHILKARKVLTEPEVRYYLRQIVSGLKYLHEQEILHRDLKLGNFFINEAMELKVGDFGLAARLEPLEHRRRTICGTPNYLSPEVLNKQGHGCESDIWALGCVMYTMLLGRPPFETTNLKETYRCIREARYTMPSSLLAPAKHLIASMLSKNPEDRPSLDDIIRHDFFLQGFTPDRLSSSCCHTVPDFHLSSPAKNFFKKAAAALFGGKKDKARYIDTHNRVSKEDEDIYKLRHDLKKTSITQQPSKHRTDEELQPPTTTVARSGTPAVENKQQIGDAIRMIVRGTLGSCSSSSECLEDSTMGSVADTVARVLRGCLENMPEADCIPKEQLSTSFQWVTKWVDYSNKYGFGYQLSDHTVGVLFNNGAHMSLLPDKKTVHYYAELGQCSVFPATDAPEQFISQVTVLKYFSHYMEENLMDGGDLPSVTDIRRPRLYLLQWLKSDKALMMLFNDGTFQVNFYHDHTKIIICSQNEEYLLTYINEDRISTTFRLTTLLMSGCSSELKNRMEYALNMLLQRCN
Chain of Receptor-type tyrosine-protein kinase FLT3 (P36888 whole entry): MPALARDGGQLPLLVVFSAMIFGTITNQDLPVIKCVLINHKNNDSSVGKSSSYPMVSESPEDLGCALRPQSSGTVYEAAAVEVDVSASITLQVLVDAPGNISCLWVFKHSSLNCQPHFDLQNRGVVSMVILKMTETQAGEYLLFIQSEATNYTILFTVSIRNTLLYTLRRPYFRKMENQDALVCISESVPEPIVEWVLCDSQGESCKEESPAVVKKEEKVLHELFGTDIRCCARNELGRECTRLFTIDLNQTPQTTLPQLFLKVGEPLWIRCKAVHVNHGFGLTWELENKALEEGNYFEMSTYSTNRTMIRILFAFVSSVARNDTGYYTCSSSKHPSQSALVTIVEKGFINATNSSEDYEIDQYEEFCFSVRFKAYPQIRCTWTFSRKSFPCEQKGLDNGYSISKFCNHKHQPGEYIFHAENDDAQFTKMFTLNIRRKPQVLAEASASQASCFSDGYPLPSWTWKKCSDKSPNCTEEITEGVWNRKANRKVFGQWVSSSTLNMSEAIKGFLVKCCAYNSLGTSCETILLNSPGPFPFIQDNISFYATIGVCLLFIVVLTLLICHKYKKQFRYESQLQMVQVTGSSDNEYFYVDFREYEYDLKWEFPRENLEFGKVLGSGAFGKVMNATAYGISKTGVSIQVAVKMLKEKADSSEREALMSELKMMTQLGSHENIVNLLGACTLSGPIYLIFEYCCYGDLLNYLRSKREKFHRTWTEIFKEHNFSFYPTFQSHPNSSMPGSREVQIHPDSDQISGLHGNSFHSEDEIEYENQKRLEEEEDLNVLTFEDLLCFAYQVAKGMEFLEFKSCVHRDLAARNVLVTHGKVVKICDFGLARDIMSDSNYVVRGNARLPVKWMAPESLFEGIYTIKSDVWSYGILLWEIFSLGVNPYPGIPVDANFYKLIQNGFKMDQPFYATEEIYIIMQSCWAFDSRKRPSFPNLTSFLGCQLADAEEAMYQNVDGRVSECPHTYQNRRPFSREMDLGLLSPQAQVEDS

## CNC(=O)c1ccc(Nc2ncc(C(F)(F)F)c(NCc3nccnc3N(C)S(C)(=O)=O)n2)cc1 [DEFACTINIB]
[1]
  pKi: < 5.00

## C[C@H](c1ccnc(Nc2nc3ccc(-c4cc(N(C)C)ncn4)cc3[nH]2)c1)N1CCN(C(=O)CC(F)(F)F)CC1 [BAY-985]
[2]
  pIC50: < 4.70
[3]
  pIC50: 6.07
[4]
  pIC50: < 4.70

## CCOc1cn(-c2ccc(F)cc2C)nc1C(=O)Nc1ccc(Oc2ccnc3cc(OC)c(OC)cc23)c(F)c1
[5]
  % of control: < 10%

## CC[C@@H]1C(=O)N(C)c2cnc(Nc3ccc(C(=O)NC4CCN(C)CC4)cc3OC)nc2N1C1CCCC1
[6]
  % of control: 0.5%
[7]
  % of control: 0.3%
[8]
  % of control: 112%

## CN(c1ccnc(CNc2nc(Nc3ccc4c(c3)CC(=O)N4)ncc2C(F)(F)F)n1)S(C)(=O)=O [PF-00911705]
[9]
  % of control: 9.9%
[10]
  % of control: 0.4%

## CN1C(=O)c2sccc2N(C)c2nc(Nc3ccc(S(N)(=O)=O)cc3)ncc21
[11]
  pIC50: 7.46

## COc1cc2ncn(-c3cc(OCc4ccccc4C(F)(F)F)c(C(N)=O)s3)c2cc1OC [GW843682X]
[12]
  % of control: 0.2%
[13]
  % of control: 1.4%
[14]
  % of control: 10%
